One data set deals with platelets. Briefly: platelet aggregation (aggregometer, thrombin or ADP). As to conditions: background statement. Format: cell-based. How it is done: Platelets were isolated from platelet-rich plasma (purchased from the Oregon Red Cross, Portland, Oreg.). Contaminating erythrocytes were removed by centrifugation (80×g for 10 minutes). Platelets were obtained by centrifugation (300×g for 10 minutes), washed once in Tyrode buffer (pH 6.5) containing 22 mM trisodium citrate and 0.35% (w/v) BSA and resuspended in the same buffer to obtain a concentration of 1-2×10^9 platelets/ml. All procedures were performed at room temperature.
A suspension of platelets (about 3.5×10^8 /ml) in Tyrode buffer was preincubated with inhibitor compounds (H-7 [1-(5-isoquinolinylsulfonyl)-2-methylpiperazine, a synthetic protein kinase-C inhibitor purchased from Seikagaku America Inc., St. Petersburg, Fla.], Calphostin-C [a synthetic protein kinase-C inhibitor obtained from Dr. Saitoh, Kyowa Hakko Co., Ltd., Machida, Tokyo, Japan], sphingosine [purchased from Sigma, St. Louis, Mo.] and dimethylsphingosine and trimethylsphingosine [synthesized according to Igarashi et al., Biochem., 28, 6796, 1989]) followed by addition of thrombin or ADP (both purchased from Sigma). Platelet aggregation was evaluated by transmittance change using an aggregometer (Chrono-log Corp., Havertown, Pa.) equipped with a computer analyzer.

The nature of a further data set: water solubility. Format: physicochemical. As to conditions: particularly at physiologic pH.
For a further data set, the system named is GMP-140. The data set is described as follows: GMP-140 expression in platelets (flow cytometry with mAb AC1.2). The data set is classed as cell-based. As to conditions: platelets preincubated with compound; thrombin or PMA activation. How it is done: GMP-140 expression was determined by (i) flow cytometry with mAb AC1.2, which is directed to GMP-140 and obtained from Dr. Furie (Tufts Univ. Sch. Med., Boston, Mass.) and (ii) adhesion of HL60 cells on platelet-coated solid phase.
A suspension of platelets (1×10^8 /ml) in Tyrode buffer was preincubated with inhibitor at pH 7.2, 37° C., for 5 minutes, then supplemented with activator, either thrombin (final concentration 1 U/ml) or phorbol 12-myristate 13-acetate (PMA) (final concentration 10^-7 M), and then the mixture was incubated at 37° C. for 10 minutes. Platelets were fixed with an equal volume of 2% (w/v) paraformaldehyde in PBS and washed 2 times with PBS containing 1% (w/v) BSA.
The paraformaldehyde-fixed platelets were incubated with 50 μl of mAb AC1.2 (2.5 μg/ml) at room temperature for 30 minutes. […]
The platelets were analyzed in an Epics flow cytometer (Coulter Corp.) with suitable gating. To calculate the inhibitory effect of various reagents, the mean fluorescence intensity of resting platelets (obtained on incubation of platelets without activator) was subtracted from the value for the activated platelet sample.
Background: Flow cytometry measures light scatter and fluorescence of single cells or particles in a stream.

The test system of a further data set is erythrocyte. The data set is described as follows: erythrocyte metabolic activity under blood storage conditions. The data set is classed as cell-based. As to conditions: in vitro, normal blood storage conditions; reduction of erythrocyte enzyme activity. The source says:
Similar results can be expected for leukocytes and platelets.

Data set [1] has as its system neutrophils. The data set is described as follows: PMA-dependent O2 consumption of neutrophils. Format: cell-based, human.
Data set [2] concerns neutrophils. Briefly: fMLP-enhanced 32P incorporation into PI, PIP and PIP2 in neutrophils. The data set is classed as cell-based, human. The following applies: fMLP 1 μM; pre-incubation of neutrophils. How it is done:
Metabolic incorporation of [^32 P]sodium phosphate (4 mCi) into phosphatidylinositol (PI), phosphatidylinositol-4-phosphate (PIP) and phosphatidylinositol-4,5-bis-diphosphate (PIP2) is enhanced by chemotactic peptide fMLP (1 μM).

“Also recorded” adds a separate entry of the source.

Regarding `CCCCCCCCCCCCC/C=C/C(O)C(CO)[N+](C)(C)C` (stereo not drawn) [TMS, N,N,N-trimethylsphingosine], in the data set with platelets, the “Platelet aggregation and associated ATP secretion” value is recorded as “inhibited strongly”. Further, in “water solubility”, the water solubility result is listed as “highly water soluble”. Also, the GMP-140 expression result in the data set with GMP-140 was “down-regulated or blocked; also recorded: inhibits GMP-140 expression”. In addition, in the data set on erythrocyte, the erythrocyte metabolic activity result is “retards erythrocyte metabolic activity”. For the same molecule, in the data set on neutrophils [1], the “PMA-dependent enhancement of O2 consumption” value is listed as “inhibited strongly”. In addition, in the data set with neutrophils [2], the “fMLP-dependent enhancement of 32P incorporation into PI, PIP and PIP2” value is listed as “suppressed strongly”.
